Values joined by “and” are separate entries in the source; they are usually repeats but may differ in a detail not shown here. Equal entries are not always repeated. Where two headings read alike, the source gives them in different places.
Columns and labels:
[1] = MK-8527-TP in PBMCs of rhesus monkeys after oral dosing; assay type: in vivo; conditions: oral MK-8527 50 mg/kg
Experimental: The intracellular concentration of MK-8527-TP was determined by an LC–MS/MS assay. LC–MS/MS analysis was performed on a Acquity UPLC system (Waters Corporation; Milford, MA, USA) interfaced to an API-5500 mass spectrometer using a TurboIonSpray source (Sciex, Framingham, MA, USA) in positive ionization mode. Separation of MK-8527-TP was achieved on a BioBasic AX column (2.1 × 100 mm, 5 µm; Thermo Fisher Scientific) at 45 °C using gradient elution with mobile phases consisting of 70% water to 30% acetonitrile containing 10 mM ammonium acetate (solvent A) and 70% water to 30% acetonitrile containing 20 mM ammonium acetate, 1.5% ammonium hydroxide (NH4OH) (v/v), and 10% isopropyl alcohol (IPA) (v/v) (solvent B) at a flow rate of 0.75 mL/min. The chromatography was run as follows: The column was equilibrated with 97% A, and after sample injection 97% A was maintained for 0.10 min before concentration was increased linearly to 100% B until 3.00 min, followed by a hold at 100% B until 3.50 min. The column was then washed by alternating linear ramps from 97% A to 100% B up to 4.10 min, then returned to the initial conditions at 4.30 min and kept for an additional 1.20 min. The total run time was 5.50 min. Quantification was performed by monitoring the transitions of m/z 548.9 to 169.1 for MK-8527-TP. The method was linear across a concentration range of 1–5,000 nM in cell samples across species. The method’s lower limit of quantification was between 1 and 5 nM depending on the assay volumes of cell suspension. Analyte concentrations in cell samples across species were determined from the standard curves using linear regression with 1/×2 weighting.
PBMCs were isolated from heparinized monkey blood using the following protocol. To begin, blood samples (approximately 12–18 mL) were diluted with an equal volume of calcium- and magnesium-free PBS at pH 7.4 and gently mixed. Separation of PBMCs from the diluted blood was achieved using 50 mL AccuSpin tubes loaded with Histopaque-1077 lymphocyte separation medium (both: Thermo Fisher Scientific). Samples were centrifuged at 800g for 15 min at room temperature. The resulting plasma/buffer supernatant was removed without disturbing the PBMC interface. Next, the PBMC interface was removed with a pipette, and the cells were washed by the addition of calcium- and magnesium-free PBS (pH 7.4) to a final volume of 15 mL. PBMCs were harvested by centrifugation at 250g for 20 min at room temperature. The supernatant was decanted with care taken not to disturb the PBMC pellet, and the wash step was repeated once (250 × g for 15 min). After the second wash, the cell pellet was resuspended in 7 mL of calcium- and magnesium-free PBS, and an aliquot was removed for cell counting. PBMCs were harvested from the remaining cell suspension by centrifugation at 250g for 15 min at room temperature. The supernatant was removed, and the cell pellet was resuspended in 0.1–0.3 mL of methanol and water at a 70:30 ratio. Cell suspensions were stored at […] prior to analysis.

PK in rats = assay type: in vivo; conditions: male, Wistar Hannover, plasma, rat
Experimental: All animal procedures were conducted according to the highest ethical standards using procedures approved by the Institutional Animal Care and Use Committee of Merck & Co., Rahway, NJ, USA (APS 2016-600774-FEB). Fasted male Wistar Hannover rats (n = 3 in each arm) weighing approximately 325 g were used for the PK studies. All blood samples were collected in EDTA-coated tubes at the time points specified below. For the IV arm of the study, a cannula was implanted in the jugular vein for dose administration and blood sampling. […] For the oral arm of the study, a solution of MK-8527 was administered by oral gavage at 2 mg/kg in 0.5% methylcellulose in water to fasted rats. […] The concentrations of MK-8527 in plasma were determined by LC–MS/MS assays following a protein precipitation step. Aliquots (50 µL) of plasma were precipitated by addition of 150 µL of acetonitrile solution-containing internal standard (IS), followed by centrifugation at 3,000 rpm for 10 min. A 75-µL aliquot of the supernatant was transferred into a 96-well plate, and 5 µL of each sample was used for analysis. LC–MS/MS analysis was performed on a Transcend LC system with HTS PAL CTC autosampler (Thermo Fisher Scientific, Waltham, MA, USA) interfaced to an API-5000 mass spectrometer using the turbo ion spray interface (Sciex, Framingham, MA, USA). Separation of MK-8527 was achieved on an Xselect HSS XP T3 column (50 × 2.1 mm, 2.5 µm; […] The chromatography for plasma samples was run using gradient elution as follows: the column was equilibrated with 100% A. […] The total run time was 4.15 min. Quantification was done by monitoring the transition of m/z 309 to m/z 169 or 133 for MK-8527. The method was linear across a concentration range of 2–10,000 ng/mL in plasma.

HIV-1 = assay: microbe, parasite or virus in culture; conditions: Human immunodeficiency virus 1, PBMC
Experimental: IC50 values were determined, and a persistence ratio was calculated for each compound. GFP, green fluorescent protein; hpi, hours post-infection; IC50, half maximal inhibitory concentration.
Assay media in each well were then evacuated and the cells resuspended using the gentle setting on the BlueWasher (BlueCatBio; Lebanon, NH, USA). Centrifugation and wash steps were repeated to ensure removal of extracellular compound.
MT4-GFP cells were infected with WT R8 virus, and PBMCs were infected with pNLG1-P2A-GFP. […] IC50 values were determined by nonlinear 4-parameter curve fitting of the data. A persistence ratio was calculated for each compound by dividing the IC50 from variable B (IC50B) by the IC50 from variable A (IC50A).

| Compound | Arithmetic Mean Concentration in PBMCs ([1]; 2 hr) [µM] | Concentration in PBMCs, individual subjects ([1]; 2 hr) | Arithmetic Mean Concentration in PBMCs ([1]; 24 hr) [µM] | Concentration in PBMCs, individual subjects ([1]; 24 hr) | Arithmetic Mean Concentration in PBMCs ([1]; 72 hr) [µM] | Concentration in PBMCs, individual subjects ([1]; 72 hr) | Arithmetic Mean Concentration in PBMCs ([1]; 168 hr) [µM] | Concentration in PBMCs, individual subjects ([1]; 168 hr) | clearance (PK in rats; IV 1.0 mg/kg, read-out: CLp) [mL/min/kg] | Vd (PK in rats; IV 1.0 mg/kg, read-out: Vdss) [L/kg] | bioavailability (PK in rats; oral 2 mg/kg) [%] | half-life (PK in rats; IV 1.0 mg/kg, read-out: t½ (converted)) [h] | IC50 (HIV-1; 48 h, read-out: Persistence assay IC50B, PBMCs) [nM] | IC50 (HIV-1; read-out: Persistence assay IC50A, PBMCs) [nM] |
| --- | --- | --- | --- | --- | --- | --- | --- | --- | --- | --- | --- | --- | --- | --- |
| C#C[C@]1(COP(=O)(O)OP(=O)(O)OP(=O)(O)O)O[C@@H](n2ccc3c(N)nc(Cl)nc32)C[C@@H]1O [MK-8527-TP] | 11.11 | 18.77 µM and 6.47 µM and 11.31 µM | 15.02 | 15.33 µM and 20.00 µM and 11.04 µM | 2.78 | 5.67 µM and 2.28 µM and 1.67 µM | 0.66 | 1.83 µM and 0.38 µM and 0.40 µM |  |  |  |  |  |  |
| C#C[C@]1(CO)O[C@@H](n2ccc3c(N)nc(Cl)nc32)C[C@@H]1O [Compound 12, (2R,3S,5R)-5-(4-amino-2-chloro-7H-pyrrolo[2,3-d]pyrimidin-7-yl)-2-ethynyl-2-(hydroxymethyl)tetrahydrofuran-3-ol] |  |  |  |  |  |  |  |  | 18.1 ± 3.3 | 2 ± 0.3 | 57 | 2.3 ± 1.3 | 18.1 ± 4.8 | 1.2 ± 0.2 |

Reference: article PMC12380353, “MK-8527 is a novel inhibitor of HIV-1 reverse transcriptase translocation with potential for extended-duration dosing” (PLOS Biology, 2025)
